Assay results from ChEMBL document CHEMBL1201862, “PubChem BioAssay data set” (2004).
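The compound was tested at five concentrations on cells cultured in 96-well plates, with a 48-hour exposure period. Here, GI50 denotes the concentration required for 50% inhibition of growth.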 Calls of active or inactive are those of the source. Rule as the data show it: active = GI50 up to about 1.1 µM and inactive = higher.

What was measured:
Assay in all cases: NCI tumour cell line growth inhibition, 48 h
BT-549 = system: BT-549
CAKI-1 = system: CAKI-1
EKVX = system: EKVX
HCC 2998 = system: HCC 2998
HL-60 = system: HL-60
HT-29 = system: HT-29
IGROV-1 = system: IGROV-1
LOX IMVI = system: LOX IMVI
MDA-N = system: MDA-N
MOLT-4 = system: MOLT-4
Malme-3M = system: Malme-3M
NCI-H226 = system: NCI-H226
NCI-H23 = system: NCI-H23
NCI-H460 = system: NCI-H460
SF-539 = system: SF-539
SK-MEL-5 = system: SK-MEL-5
UACC-257 = system: UACC-257
UACC-62 = system: UACC-62

Compound | GI50 (BT-549) | GI50 (CAKI-1) | GI50 (EKVX) | GI50 (HCC 2998) | GI50 (HL-60) | GI50 (HT-29) | GI50 (IGROV-1) | GI50 (LOX IMVI) | GI50 (MDA-N) | GI50 (MOLT-4) | GI50 (Malme-3M) | GI50 (NCI-H226) | GI50 (NCI-H23) | GI50 (NCI-H460) | GI50 (SF-539) | GI50 (SK-MEL-5) | GI50 (UACC-257) | GI50 (UACC-62)
O=C1c2ccccc2C(=O)c2c1ccc(C(=O)O)c2-c1ccc2ccccc2c1 | 26.4 µM (inactive) | 29.3 µM (inactive) | 20.6 µM (inactive) | 25.9 µM (inactive) | 27.9 µM (inactive) | 32.5 µM (inactive) | 13.7 µM (inactive) | 18.9 µM (inactive) | 26.5 µM (inactive) | 19.1 µM (inactive) | 24.1 µM (inactive) | 21.8 µM (inactive) | 18.6 µM (inactive) | 30.1 µM (inactive) | 25.8 µM (inactive) | 16.9 µM (inactive) | 49.8 µM (inactive) | 18.2 µM (inactive)
C=C1C(=O)C2=CC1CCC(=O)C1(C)CCC(OC(C)=O)C(C)(C)C1CC2O (stereo not drawn) | 3.08 µM (inactive) | 1.76 µM (inactive) | 3.91 µM (inactive) | 1.95 µM (inactive) | 0.288 µM (active) | 1.35 µM (inactive) | 3.03 µM (inactive) | 1.14 µM (inactive) | 1.4 µM (inactive) | 0.661 µM (active) | 2.37 µM (inactive) | 7.76 µM (inactive) | 2.64 µM (inactive) | 1.63 µM (inactive) | 2.1 µM (inactive) | 1.82 µM (inactive) | 3.73 µM (inactive) | 2.27 µM (inactive)
N#CC1(Nc2ccc(-c3ccc(NC4(C#N)CCCC4)cc3)cc2)CCCC1 | > 100 µM (inactive) | > 100 µM (inactive) | > 100 µM (inactive) | > 100 µM (inactive) | > 100 µM (inactive) | 77.4 µM (inactive) | > 100 µM (inactive) | > 100 µM (inactive) | > 100 µM (inactive) | 86.1 µM (inactive) | > 100 µM (inactive) | > 100 µM (inactive) | > 100 µM (inactive) | > 100 µM (inactive) | 11.8 µM (inactive) | 59 µM (inactive) | > 100 µM (inactive) | > 100 µM (inactive)
Cc1ccc(C)n1-c1ccccc1C1C=CN(C(=O)OC(C)(C)C)C=C1 | 32.7 µM (inactive) | 33.3 µM (inactive) | 16.4 µM (inactive) | 17.3 µM (inactive) | 32.7 µM (inactive) | 12.1 µM (inactive) | 31.4 µM (inactive) | 20.5 µM (inactive) | 46.2 µM (inactive) | 21.7 µM (inactive) | 15.7 µM (inactive) | 14.1 µM (inactive) | 27.5 µM (inactive) | 28.2 µM (inactive) | 46.3 µM (inactive) | 33.4 µM (inactive) | 34.7 µM (inactive) | 25.8 µM (inactive)
CC(=O)OCC1OC(n2c3c(cc(C#N)c2=S)CCCCC3)C(OC(C)=O)C(OC(C)=O)C1OC(C)=O (stereo not drawn) | > 100 µM (inactive) | > 100 µM (inactive) |  | > 100 µM (inactive) | > 100 µM (inactive) | > 100 µM (inactive) | > 100 µM (inactive) | > 100 µM (inactive) | > 100 µM (inactive) | > 100 µM (inactive) | > 100 µM (inactive) | > 100 µM (inactive) | > 100 µM (inactive) | > 100 µM (inactive) | > 100 µM (inactive) | > 100 µM (inactive) | > 100 µM (inactive) | 93.8 µM (inactive)
C[C@H]1CC[C@@H]2[C@@H](C)[C@H]3[C@H](C[C@H]4[C@@H]5CC=C6C[C@@H](O)CC[C@]6(C)[C@H]5CC[C@]34C)N2C1 | 93.1 µM (inactive) | 41.1 µM (inactive) | 36.4 µM (inactive) | 97.1 µM (inactive) | 17.5 µM (inactive) | 18.6 µM (inactive) | 27.9 µM (inactive) | 36.1 µM (inactive) | > 100 µM (inactive) | 24.5 µM (inactive) | > 100 µM (inactive) | 14.6 µM (inactive) | 88.5 µM (inactive) | 37.9 µM (inactive) | 65.9 µM (inactive) | 38.3 µM (inactive) | 45.1 µM (inactive) | 43 µM (inactive)
COc1cc(Oc2nc3ccc(C(F)(F)F)cc3nc2-c2ccccc2)cc(OC)c1OC | 20.2 µM (inactive) | 5.06 µM (inactive) | 37.8 µM (inactive) | 36.2 µM (inactive) | 31.8 µM (inactive) | 21.2 µM (inactive) | 58.2 µM (inactive) | 18.4 µM (inactive) | 40.7 µM (inactive) | > 10 µM (inactive) | 87.9 µM (inactive) | 33.3 µM (inactive) | 35.4 µM (inactive) | 34 µM (inactive) | 19.7 µM (inactive) | 14.5 µM (inactive) | 48.8 µM (inactive) | 11 µM (inactive)
Cc1c(-c2ccccc2)c(C#N)c2nnn(-c3cccc(Cl)c3)c(=O)n12 | 88.7 µM (inactive) | > 100 µM (inactive) | 33.1 µM (inactive) | 78.7 µM (inactive) | > 100 µM (inactive) | 30.8 µM (inactive) | 54.8 µM (inactive) | 87.1 µM (inactive) | > 100 µM (inactive) |  | 87.5 µM (inactive) | 48.5 µM (inactive) | > 100 µM (inactive) | > 100 µM (inactive) | 32.9 µM (inactive) | 71.1 µM (inactive) | > 100 µM (inactive) | > 100 µM (inactive)
O=C(NCCCNCCCCNCCCNC(=O)c1cc(-c2ccccc2)nc2ccccc12)c1cc(-c2ccccc2)nc2ccccc12 | 3.13 µM (inactive) | 20.3 µM (inactive) | 5.18 µM (inactive) | 2.01 µM (inactive) | 1.79 µM (inactive) | 1.91 µM (inactive) | 2.16 µM (inactive) | 1.64 µM (inactive) | 1.77 µM (inactive) | 1.9 µM (inactive) | 1.95 µM (inactive) | 1.83 µM (inactive) | 3 µM (inactive) | 2.32 µM (inactive) | 1.9 µM (inactive) | 2.61 µM (inactive) | 3.74 µM (inactive) | 2.16 µM (inactive)
N#CCCN(CCC#N)c1ccc(/C=C2\SC(=S)NC2=O)cc1 | 31.8 µM (inactive) | 23 µM (inactive) | > 100 µM (inactive) | > 100 µM (inactive) | > 100 µM (inactive) | > 100 µM (inactive) | > 100 µM (inactive) | 34.6 µM (inactive) | > 100 µM (inactive) | > 100 µM (inactive) | > 100 µM (inactive) | > 100 µM (inactive) | > 100 µM (inactive) | > 100 µM (inactive) | > 100 µM (inactive) | > 100 µM (inactive) | > 100 µM (inactive) | > 100 µM (inactive)
CC(C)c1ccc2c(c1)[C@@]1(C)CC[C@H](C)C(C)(C)C1CC2 (stereo partly drawn) | 20.6 µM (inactive) | 23.9 µM (inactive) | 18.9 µM (inactive) | 20.9 µM (inactive) | 34.4 µM (inactive) | 16.3 µM (inactive) | 51.8 µM (inactive) | 17.6 µM (inactive) | 26.1 µM (inactive) | 37 µM (inactive) | 18.5 µM (inactive) | 17.3 µM (inactive) | 18.8 µM (inactive) | 18.6 µM (inactive) | 23.4 µM (inactive) | 20.3 µM (inactive) | 19.5 µM (inactive) | 16.2 µM (inactive)
O=C(O)CCC(=O)Nc1ccc2c(c1)S(=O)(=O)N(CC(=O)O)C2=O | > 100 µM (inactive) | > 100 µM (inactive) | > 100 µM (inactive) | > 100 µM (inactive) | > 100 µM (inactive) | > 100 µM (inactive) | > 100 µM (inactive) | > 100 µM (inactive) | > 100 µM (inactive) | > 100 µM (inactive) | 39.2 µM (inactive) | > 100 µM (inactive) | > 100 µM (inactive) | > 100 µM (inactive) | > 100 µM (inactive) | > 100 µM (inactive) | > 100 µM (inactive) | > 100 µM (inactive)
COc1cc2c(cc1OC)[C@H](C)N1CCc3cc(OC)c(OC)cc3[C@@H]1C2 | > 100 µM (inactive) | > 100 µM (inactive) | > 100 µM (inactive) | > 100 µM (inactive) | > 100 µM (inactive) | > 100 µM (inactive) | > 100 µM (inactive) | > 100 µM (inactive) | > 100 µM (inactive) | > 100 µM (inactive) | > 100 µM (inactive) | > 100 µM (inactive) | > 100 µM (inactive) | > 100 µM (inactive) | > 100 µM (inactive) | > 100 µM (inactive) | > 100 µM (inactive) | > 100 µM (inactive)
O=[N+]([O-])c1c(O)c2nonc2c2nn(-c3ccccc3)nc12 | > 100 µM (inactive) | > 100 µM (inactive) | > 100 µM (inactive) | > 100 µM (inactive) | > 100 µM (inactive) | > 100 µM (inactive) | > 100 µM (inactive) | > 100 µM (inactive) | > 100 µM (inactive) | > 100 µM (inactive) | > 100 µM (inactive) | 6.85 µM (inactive) | > 100 µM (inactive) | > 100 µM (inactive) | > 100 µM (inactive) | > 100 µM (inactive) | > 100 µM (inactive) | > 100 µM (inactive)
CC(O)c1cc2c(s1)C(=O)c1c(C(C)O)csc1C2=O (stereo not drawn) | 0.19 µM (active) | 0.382 µM (active) | 0.364 µM (active) | 0.351 µM (active) | 0.0113 µM (active) | 0.586 µM (active) | 0.152 µM (active) | 0.075 µM (active) | 0.0226 µM (active) | 0.181 µM (active) | 0.0329 µM (active) | 0.264 µM (active) | 0.0561 µM (active) | 0.0451 µM (active) | 0.21 µM (active) | 0.0233 µM (active) | 0.0803 µM (active) | 0.0589 µM (active)
